{
  "source": "patent US20030125285A1",
  "about": "“Method of examining efficacy of therapy with nucleic acid” (priority 2001, published 2003)",
  "key": {"HeLaS3 cancer cells": {"system": "HeLaS3 cancer cells", "settings": "Cancer Research, 59, pp. 4325-4333 (1999); cited from earlier work"}, "SW620 cancer cells": {"system": "SW620 cancer cells", "settings": "Cancer Research, 59, pp. 4325-4333 (1999); cited from earlier work"}, "A431 cancer cells": {"system": "A431 cancer cells", "settings": "Cancer Research, 59, pp. 4325-4333 (1999); cited from earlier work"}, "HeLa cancer cells": {"system": "HeLa cancer cells", "settings": "Cancer Research, 59, pp. 4325-4333 (1999); cited from earlier work"}, "[1]": {"molecular_target": "T1, protein of SEQ ID NO: 2 (human TAR RNA binding protein 2, TRBP2) (Homo sapiens, UniProt Q15633)", "T1 construct": "made in house", "T1 sequence (Q15633 1-366)": "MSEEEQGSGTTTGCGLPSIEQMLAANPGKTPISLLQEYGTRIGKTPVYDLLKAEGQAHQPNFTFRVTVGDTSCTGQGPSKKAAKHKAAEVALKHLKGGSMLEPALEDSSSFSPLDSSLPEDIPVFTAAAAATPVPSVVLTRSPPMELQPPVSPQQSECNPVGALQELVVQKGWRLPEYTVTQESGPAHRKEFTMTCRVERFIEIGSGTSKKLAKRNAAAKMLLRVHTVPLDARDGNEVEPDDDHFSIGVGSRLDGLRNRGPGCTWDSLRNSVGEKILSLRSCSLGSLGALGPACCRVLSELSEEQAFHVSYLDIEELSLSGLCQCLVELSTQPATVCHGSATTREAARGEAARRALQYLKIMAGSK", "assay": "Detection of binding of radio-labeled poly(I)•poly(C) to phage cDNA library proteins on nitrocellulose membrane", "settings": "[32P]-poly(I)•poly(C) 1 ng/ml-1 μg/ml, chain length 100-500 bp, 42° C., 5-6 hours", "protocol": "(§1) Detection of Binding Ability to Proteins of SEQ ID NO: 1-3\n(§2) (1) Each protein was synthesized by plating phages containing cDNA on a petri dish using human HeLa 5′-STRETCH PLUS cDNA library.\n(§3) (2) The synthesized protein was transferred to nitrocellulose membrane.\n(§4) (3) To the nitrocellulose membrane was added the following test solution containing poly(I)•poly(C) (chain length 100-500 bp) radio-labeled with [γ-^32P]ATP, and subjected to hybridization at 42° C., for 5-6 hours.\n(§5) 1 ng/ml-1 μg/ml [^32P]-poly(I)•poly(C)\n(§6) The nucleotide sequence of cDNA corresponding to the screened protein was determined with a sequencer to identify the screened protein."}, "[2]": {"molecular_target": "T2, protein of SEQ ID NO: 3 (human TRAL) (Homo sapiens, UniProt P14625)", "T2 construct": "made in house", "T2 sequence (P14625 22-803)": "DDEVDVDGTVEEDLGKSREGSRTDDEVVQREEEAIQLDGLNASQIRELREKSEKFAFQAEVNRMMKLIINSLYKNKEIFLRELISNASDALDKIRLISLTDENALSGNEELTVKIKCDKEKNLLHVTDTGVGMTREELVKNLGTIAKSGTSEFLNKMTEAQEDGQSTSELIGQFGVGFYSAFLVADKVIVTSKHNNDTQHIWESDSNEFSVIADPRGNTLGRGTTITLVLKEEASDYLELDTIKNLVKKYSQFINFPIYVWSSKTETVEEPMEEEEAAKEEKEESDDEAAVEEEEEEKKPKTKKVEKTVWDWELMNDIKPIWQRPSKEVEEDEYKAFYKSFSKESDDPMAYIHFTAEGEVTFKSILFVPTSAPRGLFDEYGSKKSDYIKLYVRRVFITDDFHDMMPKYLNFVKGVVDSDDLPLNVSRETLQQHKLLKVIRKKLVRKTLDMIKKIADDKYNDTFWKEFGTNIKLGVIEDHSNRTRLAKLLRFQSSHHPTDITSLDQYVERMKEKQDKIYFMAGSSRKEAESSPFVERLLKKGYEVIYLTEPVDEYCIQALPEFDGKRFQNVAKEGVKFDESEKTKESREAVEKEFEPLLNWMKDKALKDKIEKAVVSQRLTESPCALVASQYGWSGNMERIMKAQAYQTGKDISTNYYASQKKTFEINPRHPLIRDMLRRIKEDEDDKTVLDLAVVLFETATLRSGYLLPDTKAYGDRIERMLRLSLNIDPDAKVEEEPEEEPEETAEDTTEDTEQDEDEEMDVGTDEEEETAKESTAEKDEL", "assay": "Detection of binding of radio-labeled poly(I)•poly(C) to phage cDNA library proteins on nitrocellulose membrane", "settings": "[32P]-poly(I)•poly(C) 1 ng/ml-1 μg/ml, chain length 100-500 bp, 42° C., 5-6 hours", "protocol": "as §1, §2, §3, §4, §5, §6"}, "[3]": {"molecular_target": "T3, protein of SEQ ID NO: 1 (AK002169) (Homo sapiens, UniProt Q96SI9)", "T3 construct": "made in house", "T3 sequence (Q96SI9 183-672)": "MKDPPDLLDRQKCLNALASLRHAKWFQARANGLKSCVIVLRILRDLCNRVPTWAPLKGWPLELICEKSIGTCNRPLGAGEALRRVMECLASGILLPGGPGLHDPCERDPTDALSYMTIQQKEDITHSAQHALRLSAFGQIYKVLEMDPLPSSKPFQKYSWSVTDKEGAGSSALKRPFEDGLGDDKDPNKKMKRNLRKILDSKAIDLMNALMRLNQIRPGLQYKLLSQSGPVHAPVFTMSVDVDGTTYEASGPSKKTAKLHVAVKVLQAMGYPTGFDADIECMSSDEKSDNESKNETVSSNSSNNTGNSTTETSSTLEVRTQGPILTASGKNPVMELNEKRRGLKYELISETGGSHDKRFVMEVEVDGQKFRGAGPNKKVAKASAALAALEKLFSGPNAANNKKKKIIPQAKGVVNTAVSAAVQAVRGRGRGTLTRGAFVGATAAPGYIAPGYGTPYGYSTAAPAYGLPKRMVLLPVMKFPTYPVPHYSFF", "assay": "Detection of binding of radio-labeled poly(I)•poly(C) to phage cDNA library proteins on nitrocellulose membrane", "settings": "[32P]-poly(I)•poly(C) 1 ng/ml-1 μg/ml, chain length 100-500 bp, 42° C., 5-6 hours", "protocol": "as §1, §2, §3, §4, §5, §6"}},
  "data": [
    {"substance": "polyinosinic acid-polycytidylic acid [poly(I)•poly(C)]", "values": [
      {"measurement": "efficacy against cancer cells", "setting": "HeLaS3 cancer cells", "result": "efficacious"},
      {"measurement": "efficacy against cancer cells", "setting": "SW620 cancer cells", "result": "inefficacious"},
      {"measurement": "efficacy against cancer cells", "setting": "A431 cancer cells", "result": "efficacious"},
      {"measurement": "efficacy against cancer cells", "setting": "HeLa cancer cells", "result": "inefficacious"},
      {"measurement": "binding to protein of SEQ ID NO: 2", "setting": "[1]", "result": "bound"},
      {"measurement": "binding to protein of SEQ ID NO: 3", "setting": "[2]", "result": "bound"},
      {"measurement": "binding to protein of SEQ ID NO: 1", "setting": "[3]", "result": "bound"}
    ]}
  ]
}
